From patent publication US9062077B2, “Benzopyranobenzothiazinones and their use as fungicides, antibiotics and antitumor agents” (Leibniz-Institut fuer Naturstoff-Forschung und …, priority 2011, dated 2015)

Experiments:
Format in all cases: cell-based
[1] = system: HUVEC; test: antiproliferative assay, HUVEC; conditions: Homo sapiens, read-out: GI50, inhibition of proliferation of HUVEC
Experimental: (§1) HeLa cells were used for the cytotoxic assay, HUVEC and K-562 cells were taken for the antiproliferative assay. The assays were conducted with phaeofungin C as described previously (Krauth et al., Bioorg. Med. Chem. 2010, 18, 1816-1821; Abdou et al., Phytochemistry 2010, 71, 110-116). Dose-response curves and IC50 values were then plotted and estimated, respectively.

[2] = system: K-562 human leukemia cell lines; test: antiproliferative assay, K-562; conditions: K562, read-out: GI50, inhibition of proliferation of K-562 human leukemia cell lines
Experimental: as §1

[3] = cytotoxic assay, HeLa cells; conditions: human, read-out: IC50, cytotoxic effects against HeLa cells
Experimental: as §1

Cc1cc(O)c(O)c(Oc2cc(C)c3c4c(c(=O)oc3c2O)Nc2c(O)cc(C)cc2S4)c1 [Phaeofungin C]
GI50 [1]: 7.5 µM
GI50 [2]: 2.4 µM
IC50 [3]: 10 µM
